“Also recorded” adds a separate entry of the source.
Tests used:
[1] = system: C2C12 myoblasts; assay: MTT cell viability assay in C2C12 myoblasts; conditions: screening at 1 μM, hit selection by MAD/quartile/SSMD/robust SSMD
Protocol: The mouse myoblast C2C12 cell line (ATCC, CRL-1772) was cultured at 37° C. in a 5% CO2 humidified incubator in Dulbecco's modified Eagle medium (DMEM; Thermo Fisher Scientific). For C2C12 cell proliferation, the medium was supplemented with 10% fetal bovine serum (FBS; Thermo Fisher Scientific), 100 units/ml penicillin, and 100 μg/ml streptomycin (1% Pen/Strep; Thermo Fisher Scientific). The proliferation medium was renewed each 2-3 days and confluency was kept below 80%. For differentiation of the C2C12 myoblasts into myotubes, proliferation medium was replaced by differentiation medium when cells reached 80% confluency.
Viability of QSM was assessed using the 3-(4,5-dimethylthiazol-2-yl)-2,5-diphenyltetrazolium bromide (MTT) assay. Briefly, C2C12 myoblasts were seeded in a 96-well plate (3×10^4 cells/well). 24 hours post-seeding, the wells were treated with QSM (1 μM), placebo or positive control (DMSO 2%) and incubated for 24 hours at 37° C. Next, 20 μL of MTT reagent (5 mg/mL; Sigma-Aldrich) was added to each well and the plates were returned to the incubator for 2.5 hours. After incubation, supernatant was removed from the wells and 150 μL of DMSO was added to release and dissolve the formazan crystals. Absorbance was measured at 570 nm using a microplate reader (Thermo Fisher).
The MTT assay is a widely validated and accepted viability assay for screening experiments. In this assay, the reduction of MTT into formazan, catalysed by living cell enzymes, is used as a marker of cell viability. If QSM are cytotoxic or cytostatic towards C2C12 cells, a decrease in MTT reduction is expected (viability less than 100%), while an increased C2C12 proliferation caused by QSM will result in an increased MTT reduction (viability more than 100%).
In a further set of experiments, the dose response effect of QSPs Q22 and Q184 was assessed on MTT reduction of C2C12 myotubes (tables 7.4 and 7.5).

[2] = system: C2C12 myoblasts; assay: Differentiation of C2C12 myoblasts into myotubes (LADD stain, ImageJ); assay type: cell-based, mouse; conditions: for differentiation capacity relative to the median of all samples: QSM 1 μM at d0 and d3, myotube formation at d6
Protocol: Differentiation medium consisted of DMEM supplemented with 2% horse serum (HS; Thermo Fisher Scientific) and 1% Pen/Strep. All experiments were done with C2C12 passage numbers below 30.
C2C12 myoblasts (1×10^4 cells/well) were seeded in 48-well plates and incubated until they reached 80% confluency, after which the proliferation medium was removed and replaced by differentiation medium (d0). The differentiation medium was renewed at d3. QSM (1 μM), placebo or positive controls (vitamin D3) were added to the cells together with the differentiation medium at d0 and d3. After 6 days of incubation (d6), myotubes were stained with the combined nuclear and cytoplasmatic LADD Multiple Stain (as described in R. McColl, M. Nkosi, C. Snyman, C. Niesler, Analysis and quantification of in vitro myoblast fusion using the LADD Multiple Stain, Biotechniques 61(6) (2016) 323-326). LADD Multiple Stain is a solution containing toluidine blue (VWR) and basic fuchsin (Fluka) in 30% (v/v) ethanol. The stained myotubes were assessed under a phase-contrast microscope equipped with a camera (Olympus CKX53) at a total magnification of 100×. Five different images were taken per well. The amount of myotube formation was automatically quantified using ImageJ software.
Mimicking the in vivo muscle physiology, C2C12 myoblasts are able to differentiate into myotubes when they are adjacent to each other and a differentiating extracellular medium is present. Muscle wasting diseases are characterized by a decreased myotube formation. To evaluate the effects of QSM on the differentiation capacities of C2C12 myoblasts, the C2C12 cells were treated in differentiation medium with QSM at d0 and d3, and evaluated the myotube formation at d6. At d6, the staining protocol of McColl et al. was used to visualize the myotubes (references see above). The differentiation capacity of all QSM was between 71% (Q013) and 145% (AI-2) relative to the median of all samples (FIG. 1).

[3] = system: GDF15 production by C2C12 myotubes; assay: GDF15 production by C2C12 myotubes (sandwich ELISA), mitochondrial changes; assay type: cell-based, mouse; conditions: for Effect: GDF15 (hit direction): screening at 1 μM
Protocol: GDF15 levels were determined in the supernatants of C2C12 cells after QSM, placebo or positive control (oligomyin) treatment, using a sandwich ELISA (R&D Systems). A similar protocol as described for the IL-6 determination was used.
GDF15 is considered a useful biomarker for direct or indirect changes in mitochondrial function. Moreover, GDF15 is implicated in muscle wasting diseases like sarcopenia, chronic obstructive pulmonary disease cachexia and critical illness.

[4] = system: C. elegans; assay: C. elegans swimming behaviour (muscle wasting/aging model); assay type: in vivo; set-up: key to Wave initiation rate / Asymmetry / Stretch / Curling / Travel speed / Brush stroke / Activity index: relative to placebo set to 1.0; conditions: DMSO positive control
Excerpt: The C. elegans model is a well-established aging model: they diminish in locomotory vigor as they age, a phenomenon that is attributed to a physical deterioration of muscle and synapses. QSPs were introduced in the medium of living C. elegans. As comparisons, a placebo experiment was used as negative control, while DMSO was used as positive control.
Using automatic, objective imaging software, different swimming behaviour variables associated with this decrease in locomotory vigor or muscle wasting were investigated. Wave initiation rate, travel speed, brush stroke and activity index do decrease with muscle wasting, while body wave number, asymmetry, curling and stretch do increase with muscle wasting, as described in Restif et al., Plos Computational Biology, 2014.
More in particular, the results in these tables show Q184-associated changes in three swimming parameters in wild-type adults at day 3 (Table 9) and day 12 (Table 10) (n=120-170 from 3 independent trials for each condition). Data presented are means±s.e.m (placebo set to 1.0).

[5] = system: IL-6 production by C2C12 myotubes; assay: IL-6 production by C2C12 myotubes (sandwich ELISA); assay type: cell-based, mouse; conditions: for Effect: inflammation (IL-6 production, hit direction): screening at 1 μM
Protocol: C2C12 myoblasts (2.5×10^4 cells/well) were seeded in 96-well plates and incubated until they reached 80% confluency, after which the proliferation medium was removed and replaced by differentiation medium. After 6 days of incubation with daily renewed differentiation medium, the cells were treated with 1 μM of QSM, placebo or positive control (LPS) for 24 hours. IL-6 levels were determined in the supernatants using a sandwich ELISA (eBioscience), using IL-6 capture antibody, blocking solution, samples and standards, IL-6 detection antibody, avidin-horseradish peroxidase and substrate solution which were added sequentially, with washing steps in between. After stopping the reaction with H2SO4 solution, the absorbance was measured at 450 nm and 570 nm (correction wavelength) using a microplate reader (ThermoLab Systems). Concentrations were determined using the standard curves generated with known concentrations of IL-6.
Several pro-inflammatory cytokines are elevated in sepsis, cancer, ageing and other catabolic diseases. They are thought to trigger muscle wasting (partly) through NF-kB pathways. […] In these screening experiments, the effects of QSM on myotube IL-6 production were assessed using a sandwich ELISA.
In a further set of experiments, using similar methods as described for the screening experiments, a number of QSPs were tested for a dose response relation in C2C12 cells.

[6] = system: C2C12 cells; assay: Co-treatment of C2C12 cells with QSP and ala-scan derivative, IL-6 response; assay type: cell-based, mouse; conditions: Q055 75 μM plus derivative 90 μM
Excerpt: Means±SEM, n=6. * P<0.05; ** P<0.01, *** P<0.001; paired Student's t test.

[7] = day 3, placebo set to 1.0, Q184 at 1 μM
[8] = day 12, placebo set to 1.0, Q184 at 1 μM

## CCCC(O)CC(=O)N[C@H]1CCOC1=O (some centres unmarked) [3-OH-C6-HSL]
[1]
  Effect: viability (hit direction): increasing hit; also recorded: ↑ viability

## C[C@]12OC[C@H](O)[C@@]1(O)O[B-](O)(O)O2 [AI-2]
[2]
  differentiation capacity relative to the median of all samples: 145%
[2]; screening at 1 μM, myotube formation
  Effect: differentiation (hit direction): increased myotube formation; also recorded: ↑ differentiation
[1]
  Effect: viability (hit direction): increasing both C2C12 viability and GDF15 production
[3]; QSM 1 μM, C2C12 myotubes
  GDF15 secretion, effect relative to median: 216%
[3]
  Effect: GDF15 (hit direction): increased GDF15 production

## CCCCCC(=O)N[C@H]1CCOC1=O [C6-HSL]
[3]
  Effect: GDF15 (hit direction): increased GDF15 production

## C[S+](C)[O-] [DMSO, dimethylsulfoxide, reference compound]
[4]; [7]
  Activity index: 0.60
  Asymmetry: 3.11
  Body wave number: 2.04
  Brush stroke: 0.68
  Curling: 1.55
  Stretch: 1.10
  Travel speed: 0.85
  Wave initiation rate: 0.58
[4]; [8]
  Activity index: 0.31
  Asymmetry: 2.50
  Body wave number: 2.59
  Brush stroke: 0.48
  Curling: 0.08
  Stretch: 0.91
  Travel speed: 0.49
  Wave initiation rate: 0.39

## AGTKPQGKPASNLVECVFSLFKKCN [Q011]
[1]
  Effect: viability (hit direction): decreasing viability hits
[3]
  Effect: GDF15 (hit direction): increased GDF15 production

## AIFILAS [Q013]
[2]
  differentiation capacity relative to the median of all samples: 71%

## AKDEH [Q015]
[1]
  Effect: viability (hit direction): decreasing viability hits
[3]
  Effect: GDF15 (hit direction): increased GDF15 production

## ALILTLVS [Q017]
[1]
  Effect: viability (hit direction): decreasing viability hits

## ARNQT [Q018]
[1]
  Effect: viability (hit direction): decreasing viability hits

## DLRGVPNPWGWIFGR [Q030]
[1]
  Effect: viability (hit direction): decreasing viability hits

## DLRNIFLKIKFKKK [Q031]
[1]
  Effect: viability (hit direction): decreasing viability hits

## DSVCASYF [Q040]
[1]
  Effect: viability (hit direction): decreasing viability hits

## ERPVG [Q052]
[5]
  Effect: inflammation (IL-6 production, hit direction): decreased the IL-6 production; also recorded: ↓ inflammation
[1]
  Effect: viability (hit direction): increasing hits; also recorded: increasing viability hit

## ESRLPKIRFDFIFPRKK [Q054]
[5]; QSM 1 μM, 24 h, relative to median of all QSM
  relative IL-6 production: 51%
[5]
  Effect: inflammation (IL-6 production, hit direction): decreased the IL-6 production; also recorded: ↓ inflammation

## ESRVSRIIADFLFQRKK (Synthetic QSP055-A9)
[6]
  effect on Q055 mediated IL-6 induction: antagonistic effect
